{"source": "patent US20250361485A1", "about": "“MODIFIED CD4+ T CELLS EXPRESSING IL-37 AND METHODS OF USE THEREOF” (The Regents of the University of Colorado, A Body Corporate, priority 2022, published 2025)", "type_in_all_cases": "cell-based", "key": {"[1]": {"test_system": "human Treg cells", "experiment": "CD25+FOXP3+ frequency in human Treg cells cultured with IL-6", "details": "anti-TCR/CD28, IL-6 20 ng/ml", "protocol": "Purified lymphocytes from either humans or mice were washed with FACS buffer (5% BSA (Sigma-Aldrich) and 1×PBS), and then prepared for surface or intracellular staining, as described (Osborne and Wetzel, 2012). For surface staining, 1 μg or the manufacturer-recommended amounts of fluorescently conjugated antibody specific to the surface marker to be visualized was added to 1×10^6 cells resuspended in 100 μl of FACS buffer for 30 min at 4° C., then washed 2× with FACS buffer prior to being either analyzed or further processed. For intracellular cytokine staining (ICS), the FOXP3 Cytoperm/Cytofix staining kit (BD Pharmingen, San Diego, CA) was used after cells were stimulated for 24 h on 1 μg/ml anti-CD3-coated plates with soluble 1 μg/ml anti-CD28 antibody or anti-CD3/CD28 conjugated Dynabeads™ (Gibco, Thermo Fisher). For measuring proliferation, cells were stained with 5-μM CFSE (Molecular Probes, Eugene, OR) prior to cell culture and analyzed using flow cytometry. Flow-based measurement of caspase-1 activation was done using the FAM-FLICA® Caspase-1 Assay kit #98 following the manufacturer's instructions (ImmunoChemistry Tech, Bloomington, MN). […] All acquisitions were performed on a Galios® or Galios® 561 cytometer equipped with Kaluza software (Beckman-Coulter, Indianapolis, IN), and all data were analyzed with FlowJo_V10 software (Tree Star, Ashland, OR)."}, "[2]": {"test_system": "caspase-1", "experiment": "Caspase-1 inhibition in human Treg / CD4+ T cells", "details": "50 μM", "protocol": "For proximity ligation assay (PLA) experiments, after primary antibodies were washed out, cells were incubated for 1 h at 37° C. with an anti-rabbit PLUS probe (1:5 dilution; Duo92002; Sigma-Aldrich) anti-mouse MINUS probe (1:5 dilution; Duo92004; Sigma-Aldrich) and were washed two times with wash buffer A. Probes were then ligated for 30 min at 37° C. and washed two times in Buffer A and were amplified for 100 min at 37° C. in the dark with polymerase (Sigma-Aldrich). For flow-based PLA (Sigma-Aldrich), after amplification, cells were treated with 1× green detection buffer for 30 min at 37° C., then washed 2× with PLA wash buffer and prepared for flow analysis. After 2 washes with 1× Buffer B (Thermo Fisher), each well was added with ProLong™ Gold antifade reagent (Thermo Fisher) containing DAPI nuclear stain. Images were obtained with an Olympus FV1000 FCS/RICS system (Olympus, Tokyo, Japan). For analysis, 7 different 100×/1.4 Oil Plan-Apochromatic objective fields of view were imaged per well per experiment. Each field was measured for IL-37 fluorescence intensity using the FIJI measurement application. To analyze the cytoplasmic vs. nuclear localization of IL-37 within the T cells, DAPI and IL-37 overlapped images was used. Along with single-slice full field images, […] slice z-stack images were taken to confirm cytoplasmic vs. nuclear localization of IL-37. Colocalization of IL-37 and DAPI was assessed by Pearson's correlation coefficient using FIJI. Line intensity profiles were created using a Plot profile in FIJI to measure differences in fluorescence across a cell by drawing a line spanning the diameter of the cell, and then the staining intensity measurements across the line were then entered into Prism 8 (GraphPad, Lo Jolla, CA). 3D fluorescent maps were created using a Surface plot in FIJI.\nPurified lymphocytes from either humans or mice were washed with FACS buffer (5% BSA (Sigma-Aldrich) and 1×PBS), and then prepared for surface or intracellular staining, as described (Osborne and Wetzel, 2012). For surface staining, 1 μg or the manufacturer-recommended amounts of fluorescently conjugated antibody specific to the surface marker to be visualized was added to 1×10^6 cells resuspended in 100 μl of FACS buffer for 30 min at 4° C., then washed 2× with FACS buffer prior to being either analyzed or further processed. […] For measuring proliferation, cells were stained with 5-μM CFSE (Molecular Probes, Eugene, OR) prior to cell culture and analyzed using flow cytometry. […]"}, "[3]": {"test_system": "FOXP3", "experiment": "siRNA knockdown in primary human T cells, FOXP3 and marker expression", "details": "siRNA 48 h prior", "protocol": "Purified primary human CD4+ T cells were used for siRNA knockdown of RUNX1, RPTOR, IL37, CREB1, CHK1, NLRP2, NLRP3, NLRP4, ASC, and NLRC4, and CD4+CD25+CD127^dim T cells for siRNA knockdown of FOXP3 and IL37. Cells were purified from healthy donor PBMCs as described above and then placed in culture in complete RPMI 1640 for at least 2 h prior to siRNA transfection via nucleofection using the Amaxa P3 Primary Cell 4D-Nucleofector X Kit L (Lonza) following the manufacturer's instructions. For the knockdown of RPTOR and IL-37, three different siRNAs (30 nM) against RPTOR and IL-37: A, B, and C (OriGene, Rockville, MD) were used separately or pooled, whereas for FOXP3 knockdown, only the pool of three different siRNAs (30 nM) against FOXP3: A, B, and C (OriGene) was used due to a limited number CD4+CD25+CD127^dim T cells. For the knockdown of NLRP3A, three to four siRNAs were pooled together, and for NLRC4 and NLRP4, Dharmacon SMARTpool was used. Single-sense and anti-sense siRNAs were used for NLRP2 and ASC (Ambion). Scrambled siRNA (OriGene, Ambion, and Dharmacon) was used as a control. Knockdowns were confirmed 24 hours after nucleofection by qRT-PCR or 48 hours later by western blot, and the relative density of the protein bands was determined using FIJI. […]"}, "[4]": {"test_system": "p-SMAD3 S208", "experiment": "Immunoblotting of cytoplasmic and nuclear proteins of human Treg cells after flavopiridol", "details": "immunoblot", "protocol": "For immunoblot analysis, cells were lysed in RIPA buffer (50 mM Tris-HCL pH 7.4, 150 mM NaCl, 1 mM PMSF, 1 mM EDTA, 5 μg/ml Aprotinin, […] Leupeptin, 1% Triton x-100, 1% Sodium deoxycholate, 0.1% SDS) (Sigma-Aldrich). For IP of Smad3, cells were lysed in Pierce® IP Lysis Buffer (Thermo) and prepared using the Thermo Immunoprecipitation containing Dynabeads™ Protein G kit according to the manufacturer's instructions. The Smad3 IP was performed using the rabbit monoclonal antibody against Smad3 (C67H9) (Thermo). Hsp90 IP using mouse monoclonal antibody against Hsp90 (610418) (BD Biosciences). 20 μg of sample was run on a 4-15% Mini-Protean TGX precast gel (Bio-Rad) and then transferred overnight at 4° C. and 30 V to a PVDF membrane using a Bio-Rad Trans-Blot® transfer cell. Following 1 h of blocking with blocking buffer (5% milk/Tween 20 in TBS), membranes were incubated with primary antibody overnight at 4° C. For siRNA knockdown blots, mouse β-actin monoclonal antibody (Sigma-Aldrich) at a dilution of 1:10,000 was used for the loading control. For Smad3 IP, rabbit anti-human IL-37 (IL-1F7) polyclonal antibody (Invitrogen, Thermo) at a dilution of 1:1000 was used to detect IL37. HRP-conjugated anti-rabbit (1:5000) and anti-mouse IgG (1:5000) were purchased from Sigma-Aldrich. The SuperSignal West Pico Kit (Thermo Fisher) was used according to the manufacturer's instructions for the chemiluminescent detection of the proteins. Protein expression was further analyzed by measuring the relative densities using FIJI (National Institutes of Health: http://rsb.info.nih.gov/ij/) or LI-COR Image Studio™ Software.\nTherefore, cytoplasmic and nuclear proteins of primary human Treg cells was scrutinized following flavopiridol treatment to ascertain if p-SMAD3 S208 is essential for the nuclear localization of SMAD3 and IL-37."}, "[5]": {"test_system": "FOXP3", "experiment": "FOXP3 expression in human Treg / CD4+ T cells treated with SMAD3 inhibitors", "details": "for FOXP3 mRNA expression: purified human Treg cells", "from_the_text": "p-SMAD3 […]/425 is recognized for its involvement in TGFβ signaling. […] Given the essential role of SMAD3 phosphorylation in nuclear localization and transcriptional activity controlling other genes, the phosphorylation status and its association with IL-37 in human Treg cells was examined (FIG. 24A). Inhibitors of […]/425 sites (SIS3) and […]/[…] sites (flavopiridol) were utilized to determine if they could decrease FOXP3 mRNA expression and disrupt the SMAD3/IL-37 interaction. […] These findings also point to a crucial interplay between p-SMAD3 […] and IL-37 in orchestrating the transcriptional regulation of FOXP3 in human Treg cells."}}, "data": [{"compound": "IL-6: IL-6 (Peprotech), 20 ng/ml, added as inflammatory stimulus to Treg cultures", "values": [{"measurement": "decrease in frequency of CD25+FOXP3+ cells", "setting": "[1]; gated IL37hi human Treg cells", "result": "no such reduction"}, {"measurement": "decrease in frequency of CD25+FOXP3+ cells", "setting": "[1]; gated IL-37lo human Treg cells", "result": 34, "unit": "%"}]}, {"compound": "Ac-YVAD-CMK", "values": [{"measurement": "FOXP3 mRNA and protein expression", "setting": "[2]; human CD4+ T cells", "result": "reduction"}, {"measurement": "decrease of interaction between IL-37 and p-SMAD3 S208", "setting": "[2]; human Treg cells", "result": 36.5, "unit": "%"}, {"measurement": "IL-37 subcellular localization", "setting": "[2]; human Treg cells, 24 h", "result": "shift of IL-37 localization from the nucleus to the perinuclear region of the cytoplasm"}, {"measurement": "IL-37 expression", "setting": "[2]; human Treg cells, 48 h", "result": "without alteration"}]}, {"compound": "RUNX1: siRNA against RUNX1 (Ambion), SEQ ID NO: 34-35 (chain 1 AGAACCAGGUUGCAAGAUU; chain 2 AAUCUUGCAACCUGGUUCU; listed as RNA, chemistry not given here)", "values": [{"measurement": "frequency of FOXP3+ T cells in CD4+ T cells after knockdown", "setting": "[3]", "result": "significant decline"}]}, {"compound": "CN1CC[C@H](c2c(O)cc(O)c3c(=O)cc(-c4ccccc4Cl)oc23)[C@H](O)C1", "note": "[flavopiridol]", "values": [{"measurement": "expression of IL-37 in the nucleus", "setting": "[4]", "result": "abolished"}, {"measurement": "nuclear SMAD3 levels", "setting": "[4]", "result": "lowered"}, {"measurement": "nuclear levels of FOXP3", "setting": "[4]", "result": "reduced"}, {"measurement": "p-SMAD3 S208", "setting": "[4]", "result": "diminished"}, {"measurement": "FOXP3 protein expression, fold decrease compared to control cells", "setting": "[5]; primary human CD4+ T cells, not rescued by TGF-β", "result": "~2", "unit": "fold"}, {"measurement": "FOXP3 mRNA expression", "setting": "[5]", "result": "almost completely obliterated"}]}, {"compound": "CREB1: siRNA against CREB1 (Ambion), SEQ ID NO: 8-9 (chain 1 CCGUAACUCUAGUACAGCU; chain 2 AGCUGUACUAGAGUUACGG; listed as RNA, chemistry not given here)", "values": [{"measurement": "frequency of FOXP3+ T cells in CD4+ T cells after knockdown", "setting": "[3]", "result": "significant decline"}]}, {"compound": "COc1cc2c(cc1OC)CN(C(=O)/C=C/c1c(-c3ccccc3)n(C)c3ncccc13)CC2", "note": "[SIS3]", "values": [{"measurement": "FOXP3 protein expression", "setting": "[5]; primary human CD4+ T cells", "result": "did not significantly decrease"}, {"measurement": "FOXP3 mRNA expression", "setting": "[5]", "result": "did not significantly alter"}]}]}
